From PMC8745253, “Affinity and Specificity for Binding to Glycosaminoglycans Can Be Tuned by Adapting Peptide Length and Sequence” (International Journal of Molecular Sciences, 2021)

Key:
[1] = cited from earlier work
Text: (§1) Chemokines are small proteins that have two main interaction partners: chemokine receptors, which are G protein-coupled receptors (GPCRs), and GAGs. The binding of chemokines to GAGs enables the formation of a chemokine concentration gradient, which is indispensable for leukocyte migration. Interfering with the interactions between GAGs and chemokines can be a useful therapeutic strategy to inhibit inflammation. The chemokine CXCL9 binds to CXCR3 and is characterized by a highly positively charged COOH-terminal tail. A CXCL9-derived peptide, CXCL9(74-103), consisting ...

[2] = system: cellular GAGs on HS+ (pgsB-618 clone 19) and HS- (pgsB-618 clone 16) CHO cells; experiment: Binding of TAMRA-labeled peptides to cellular GAGs, flow cytometry; type: cell-based, Chinese hamster; conditions: 0.24 nmol TAMRA-labeled peptide; for Binding to HS+ CHO cells compared with HS- CHO cells (MFI): 1 × 10^5 cells, 30 min on ice, Wilcoxon test; for Binding capacity for cellular GAGs (MFI ([HS+]–[HS−])), comparison of the peptides: n ≥ 7, Mann–Whitney test
Description: The binding of four different TAMRA-labeled peptides (KKAK-2mer, KKQK-3mer, KKKQQK-2mer and CXCL9(74-103)) to cellular GAGs on pgsB-618 clone 16 (HS^− CHO cells) and pgsB-618 clone 19 cells (HS^+ CHO cells) was assessed using flow cytometry. Since each peptide contains exactly one TAMRA-group connected to the N-terminus, this allows us to quantify the peptides by their fluorescence or absorbance.
(§2) First, the medium was discarded, the cells were washed with PBS and were detached with trypsin/EDTA at 37 °C. Subsequently, the cells were resuspended in medium and left at room temperature for 45 min, and afterwards on ice for 15 min. After centrifugation at 177 g and 4 °C for 7 min, the pellet was resuspended in PBS and the cells were kept on ice. For each condition, 1 × 10^5 cells in 100 μL PBS were used and 4.7% (v/v) FcR blocking reagent and 0.06% (v/v) Zombie Aqua fixable viability dye were added to the cells. Following incubation in the dark at room temperature for 20 min, a wash step with flow cytometry buffer was performed. Afterwards, 0.24 nmol TAMRA-labeled peptide was added to the cells. After incubation in the dark on ice for 30 min, a wash step with flow cytometry buffer was performed and, subsequently, the cells were fixed with 0.4% (v/v) formaldehyde in flow cytometry buffer and kept at 4 °C. Flow cytometric analysis was performed within the following 24 h using a BD LSRFortessa X-20 flow cytometer (BD Biosciences; Franklin Lakes, NJ, USA), and the results were analyzed using FlowJo software (BD Biosciences).
(§3) Flow cytometry data (Figure 7C and Figure S2) are represented as median. […] In the next step, either a Mann–Whitney test (for unpaired data) or a Wilcoxon test (for paired data) was used to compare the groups. Statistical analysis was performed using GraphPad Prism 8.3.0 software (GraphPad Software; San Diego, CA, USA).

[3] = system: cellular GAGs on HS+ and HS- CHO cells; experiment: Binding of TAMRA-labeled peptides to cellular GAGs in the presence of added soluble GAGs, flow cytometry; type: cell-based, Chinese hamster; conditions: versus no GAG, Kruskal–Wallis test, n ≥ 6; for Effect of added soluble HA on binding of the peptide to cellular GAGs (MFI ([HS+]–[HS−])): 0.24 nmol peptide with 0.03-3 μg HA (70–120 kDa); for Effect of added soluble HS on binding of the peptide to cellular GAGs (MFI ([HS+]–[HS−])): 0.24 nmol peptide with 0.03-3 μg HS; for Effect of added soluble heparin on binding of the peptide to cellular GAGs (MFI ([HS+]–[HS−])): 0.24 nmol peptide with 0.03-3 μg heparin
Description: as §2
Similarly, the binding of three TAMRA-labeled peptides (KKQK-3mer, KKKQQK-2mer and CXCL9(74-103)) to cellular GAGs on pgsB-618 clone 16 (HS^− CHO cells) and pgsB-618 clone 19 cells (HS^+ CHO cells) in the presence of added GAGs was assessed using flow cytometry. In this experiment, different doses (0.03, 0.1, 0.3, 1 or 3 μg) of heparin (heparin low in calcium; Iduron; Cheshire, UK), HS (GAG HS01 BN1; Iduron; Cheshire, UK) or HA (70–120 kDa; HA sodium salt 96144; Sigma-Aldrich; St. Louis, MO, USA) were added to the cells, simultaneously with 0.24 nmol of TAMRA-labeled peptide (vide supra).
as §3

CXCR3 = conditions: cited from earlier work
Text: as §1

[4] = cited from earlier work; remark: listed apart in the source
Text: No significant difference in affinity for HS was detected between the long (KKKQQK) and short (KKQK) GAG-binding motifs (Figure 2). […] This is consistent with the report that peptides containing multiple copies of the GAG-binding motifs XBBXBX and XBBBXXBX had higher affinity for heparin [30]. It is important to point out that CXCL9(74-103) had the ...

Molecule | Binding to HS+ CHO cells compared with HS- CHO cells (MFI) [2] | Binding capacity for cellular GAGs (MFI ([HS+]–[HS−])), comparison of the peptides [2] | Effect of added soluble HA on binding of the peptide to cellular GAGs (MFI ([HS+]–[HS−])) [3] | Effect of added soluble HS on binding of the peptide to cellular GAGs (MFI ([HS+]–[HS−])) [3] | Effect of added soluble heparin on binding of the peptide to cellular GAGs (MFI ([HS+]–[HS−])) [3] | also measured
CC(=O)NC(CCCNC(=N)N)C(N)=O (stereo not drawn) [acetyl-Arg-amide] |  |  |  |  |  | Tighter binding to heparin than the corresponding acetyl-Lys-amide [1]: approximately 2.5 times
* KKAKASASKKAKTT [KKAK-2mer] | bound significantly better to HS^+ CHO cells | lowest |  |  |  | 
* KKKQKNGKKHQKKKVLKVRKSQRSRQKKTT [CXCL9(74-103), chemokine-derived peptide, the 30 COOH-terminal amino acids of the chemokine CXCL9, TAMRA-labeled] | bound significantly better to HS^+ CHO cells | significantly higher (p < 0.0001) compared with that of the three other peptides | no significant differences | statistically significant reduction of binding | statistically significant reduction of binding | Binding to and signaling through CXCR3 (CXCR3): lacks the capacity to bind to, and signal through, CXCR3
* KKKQQKQSQSKKKQQKTT [KKKQQK-2mer] | bound significantly better to HS^+ CHO cells | significantly higher (p < 0.05) in comparison with the binding capacity of the KKAK-2mer | no significant differences | no significant differences | no significant differences | 
* KKQKQSQSKKQKQSQSKKQKTT [KKQK-3mer] | bound significantly better to HS^+ CHO cells | significantly higher (p < 0.05) in comparison with the binding capacity of the KKAK-2mer | no significant differences | no significant differences | no significant differences | 
AAARRARAAAARAKA [modified serglycin peptide in which Ala residues replaced all non-basic amino acids] |  |  |  |  |  | Decrease in heparin-binding affinity compared with native peptide YPARRARYQWVRCKP ([4]; Ala residues replaced all non-basic amino acids): 350 fold
YPARRARYQWVRCKP |  |  |  |  |  | Heparin-binding affinity ([4]; fragment of native mouse serglycin core protein with BBXB motif): significant heparin-binding affinity
